ChEMBL document CHEMBL1240324, “TRPM8 voltage sensor mutants reveal a mechanism for integrating thermal and chemical stimuli” (Nat Chem Biol, 2007)
The source made the active and inactive calls. No cut-off for these calls is given here.

Columns and labels:
HEK293 = experiment: Displacement of [3H]menthol from human TRPM8 S4b_M5 mutant expressed in HEK293 cell membranes at 100 uM by scintillation counting
[1] = Activity at human TRPM8 S4b_M mutant expressed in HEK293 cells assessed as compound concentration causing leftward shift of voltage for half maximal activation; assay type: cell-based
[2] = Binding affinity to human TRPM8 S4b_M mutant expressed in HEK293 cell membranes
[3] = system: Transient receptor potential cation channel subfamily M member 8 (Homo sapiens), Q7Z2W7 [L1009R]; conditions: HEK293, 100 uM
Chain of Transient receptor potential cation channel subfamily M member 8 (Homo sapiens), Q7Z2W7 [L1009R] (Q7Z2W7 whole entry L1009R): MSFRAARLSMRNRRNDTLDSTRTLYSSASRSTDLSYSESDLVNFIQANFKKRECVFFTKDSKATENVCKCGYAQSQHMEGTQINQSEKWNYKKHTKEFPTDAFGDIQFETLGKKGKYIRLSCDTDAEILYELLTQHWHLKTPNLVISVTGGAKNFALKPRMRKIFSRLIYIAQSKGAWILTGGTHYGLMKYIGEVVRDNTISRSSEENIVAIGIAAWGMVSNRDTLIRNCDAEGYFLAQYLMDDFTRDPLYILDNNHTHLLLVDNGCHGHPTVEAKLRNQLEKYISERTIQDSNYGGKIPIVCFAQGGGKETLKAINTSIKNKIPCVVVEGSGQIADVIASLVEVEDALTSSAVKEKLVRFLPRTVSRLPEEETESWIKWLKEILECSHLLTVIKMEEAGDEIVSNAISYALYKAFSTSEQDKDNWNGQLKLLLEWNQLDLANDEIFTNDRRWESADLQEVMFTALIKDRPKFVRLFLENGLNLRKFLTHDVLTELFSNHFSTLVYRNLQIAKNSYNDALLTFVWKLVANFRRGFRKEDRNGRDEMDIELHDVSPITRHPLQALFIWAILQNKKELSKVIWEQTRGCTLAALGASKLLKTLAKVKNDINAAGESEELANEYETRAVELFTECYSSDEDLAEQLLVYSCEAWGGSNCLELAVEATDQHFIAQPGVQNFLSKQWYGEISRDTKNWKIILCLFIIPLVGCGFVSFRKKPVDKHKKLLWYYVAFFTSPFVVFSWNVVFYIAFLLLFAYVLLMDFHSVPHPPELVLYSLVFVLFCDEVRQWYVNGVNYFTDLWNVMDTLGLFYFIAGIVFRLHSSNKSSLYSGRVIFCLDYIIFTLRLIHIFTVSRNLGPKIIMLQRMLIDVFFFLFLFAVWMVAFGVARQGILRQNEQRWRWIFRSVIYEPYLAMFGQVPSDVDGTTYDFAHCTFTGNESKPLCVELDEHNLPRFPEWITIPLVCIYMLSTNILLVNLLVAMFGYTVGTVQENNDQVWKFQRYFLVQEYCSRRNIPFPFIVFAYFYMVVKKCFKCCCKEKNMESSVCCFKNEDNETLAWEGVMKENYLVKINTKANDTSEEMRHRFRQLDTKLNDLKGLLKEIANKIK

[4] = system: Transient receptor potential cation channel subfamily M member 8 (Homo sapiens), Q7Z2W7 [Y745H]; conditions: HEK293, 100 uM
Chain of Transient receptor potential cation channel subfamily M member 8 (Homo sapiens), Q7Z2W7 [Y745H] (Q7Z2W7 whole entry Y745H): as the sequence (Q7Z2W7 whole entry L1009R) above, with Y745H, R1009L counted along it

- EC50 [1]: 477 µM
- inhibition [3]: Active
- inhibition [4]: inactive
SMILES: CC1CCC(C(C)C)C(O)C1 (stereo not given) [MENTHOL]
- inhibition (HEK293): inactive
- Kd [2]: 220 µM
